Test results taken from the NIST ThermoML archive (doi:10.1021/je9006019).
Where “and” joins values, the source holds several entries; their conditions need not be identical. Identical values can stand only once. Numbers after ± are expanded uncertainties.

Assay: mn = molality of the nth substance listed, in mol/kg
Details: 101 kPa, Liquid; for viscosity: Capillary tube (Ostwald / Ubbelohde) method; for electrical conductivity: DIgital conductivity meter (306) of Systronics; for speed of sound: Pulse-echo method

CCCCCCCCCCCCOS(=O)(=O)[O-].[Na+] [sodium dodecyl sulfate] + O
Details	electrical conductivity [S/m]	mass density [kg/m3]	speed of sound	viscosity [mPa·s]
298.15 K, m1 = 0.001	–	–	1497.2 ± 1 m/s	–
298.15 K, m1 = 0.003	–	–	1497.5 ± 1 m/s	–
298.15 K, m1 = 0.005	–	–	1497.8 ± 1 m/s	–
298.15 K, m1 = 0.007	–	–	1497.9 ± 1 m/s	–
298.15 K, m1 = 0.008	–	–	1497.9 ± 1 m/s	–
298.15 K, m1 = 0.01	–	–	1498.1 ± 1 m/s	–
298.15 K, m1 = 0.02	–	–	1498.2 ± 1 m/s	–
298.15 K, m1 = 0.03	–	–	1498.4 ± 1 m/s	–
298.15 K, m1 = 0.05	1 ± 0.6	999.078 ± 0.43	1498.3 ± 1.3 m/s and 1498.3 ± 1 m/s	0.986 ± 0.01
298.15 K, m1 = 0.07	–	–	1498.2 ± 1 m/s	–
298.15 K, m1 = 0.1	2.6 ± 0.6	1000.97 ± 0.44	1498 ± 1.3 m/s	1.133 ± 0.012
298.15 K, m1 = 0.103	–	–	1498.2 ± 1 m/s	–
303.15 K, m1 = 0.001	–	–	1509.5 ± 1 m/s	–
303.15 K, m1 = 0.003	–	–	1509.8 ± 1 m/s	–
303.15 K, m1 = 0.005	–	–	1510.1 ± 1 m/s	–
303.15 K, m1 = 0.007	–	–	1510.1 ± 1 m/s	–
303.15 K, m1 = 0.008	–	–	1510.2 ± 1 m/s	–
303.15 K, m1 = 0.01	–	–	1510.3 ± 1 m/s	–
303.15 K, m1 = 0.02	–	–	1510.3 ± 1 m/s	–
303.15 K, m1 = 0.03	–	–	1510.4 ± 1 m/s	–
303.15 K, m1 = 0.05	–	–	1510.2 ± 1 m/s	–
303.15 K, m1 = 0.07	–	–	1509.9 ± 1 m/s	–
303.15 K, m1 = 0.103	–	–	1509.7 ± 1 m/s	–
308.15 K, m1 = 0.001	–	–	1520.1 ± 1 m/s	–
308.15 K, m1 = 0.003	–	–	1520.4 ± 1 m/s	–
308.15 K, m1 = 0.005	–	–	1520.6 ± 1 m/s	–
308.15 K, m1 = 0.007	–	–	1520.7 ± 1 m/s	–
308.15 K, m1 = 0.008	–	–	1520.7 ± 1 m/s	–
308.15 K, m1 = 0.01	–	–	1520.8 ± 1 m/s	–
308.15 K, m1 = 0.02	–	–	1520.8 ± 1 m/s	–
308.15 K, m1 = 0.03	–	–	1520.7 ± 1 m/s	–
308.15 K, m1 = 0.05	2.1 ± 0.6	995.942 ± 0.44	1520.3 ± 1 m/s and 1520.2 ± 1.3 m/s	0.79 ± 0.009
308.15 K, m1 = 0.07	–	–	1519.9 ± 1 m/s	–
308.15 K, m1 = 0.1	3.4 ± 0.6	997.734 ± 0.44	1519.1 ± 1.3 m/s	0.87 ± 0.01
308.15 K, m1 = 0.103	–	–	1519.3 ± 1 m/s	–
313.15 K, m1 = 0.001	–	–	1529 ± 1 m/s	–
313.15 K, m1 = 0.003	–	–	1529.3 ± 1 m/s	–
313.15 K, m1 = 0.005	–	–	1529.5 ± 1 m/s	–
313.15 K, m1 = 0.007	–	–	1529.5 ± 1 m/s	–
313.15 K, m1 = 0.008	–	–	1529.6 ± 1 m/s	–
313.15 K, m1 = 0.01	–	–	1529.7 ± 1 m/s	–
313.15 K, m1 = 0.02	–	–	1529.5 ± 1 m/s	–
313.15 K, m1 = 0.03	–	–	1529.4 ± 1 m/s	–
313.15 K, m1 = 0.05	–	–	1528.8 ± 1 m/s	–
313.15 K, m1 = 0.07	–	–	1528.2 ± 1 m/s	–
313.15 K, m1 = 0.103	–	–	1527.3 ± 1 m/s	–
